The target in test [1] is FITC-labeled peptide derived from the wild-type C-terminal sequence of SciP (C. crescentus). The test is described as follows: fluorescence polarisation.
Test [2] deals with T1, NTD of CcLon (aa. 1-206) (Caulobacter vibrioides, UniProt P0CAW0).
T1 sequence (P0CAW0 1-206): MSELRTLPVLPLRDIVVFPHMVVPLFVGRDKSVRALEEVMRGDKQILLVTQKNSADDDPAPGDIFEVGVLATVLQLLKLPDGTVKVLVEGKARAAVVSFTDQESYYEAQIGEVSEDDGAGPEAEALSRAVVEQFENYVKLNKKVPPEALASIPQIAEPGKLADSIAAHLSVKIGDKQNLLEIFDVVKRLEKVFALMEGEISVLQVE
The test is described as follows: Fluorescence polarization, FITC-labeled degron peptides vs NTD. In kind it is binding, C. crescentus. Particulars: FP assay. A general note: In fluorescence polarisation assays a small probe gives low polarisation when free and higher when bound to something large.

For test [3], the system named is LarA-NTD complex. Nature of the test: Fluorescence polarization, FITC-labeled degron peptides vs LarA-NTD complex. The format is binding, C. crescentus. The note with it: FP assay.

No end group written: not given here. *: point of attachment. FITC = O=C1OC2(c3ccc(O)cc3Oc3cc(O)ccc32)c2ccc(NC(=S)*)cc21

For the substance “LarA-NTD complex (from UniProt P0CAW0 1-206)”, the Kd in test [1] came to 413 µM.

Take {FITC}-HEAAPASAH [pep-LarA-mut]: the “FP binding to NTD (in words)” value in test [2] was “failed to bind”. In addition, the “FP binding to LarA-NTD complex (in words)” value in test [3] is on record as “failed to bind”.

Take {FITC}-HELAPVSVH [pep-LarA-amidated]: the “FP binding to NTD (in words)” value in test [2] is “no binding was observed”. For the same substance, in test [3], the “FP binding to LarA-NTD complex (in words)” value is “comparable to that of pep-LarA”.

Turning to “{FITC}-QSADRHGAAGARTTRAQQYR [pep-SciP-mut]”, the “FP binding to NTD (in words)” value in test [2] is listed as “failed to bind”. In addition, the “FP binding to LarA-NTD complex (in words)” value in test [3] is listed as “failed to bind”.

By Kd is commonly meant the constant that tells how readily two partners part at equilibrium. Read a high Kd as lower affinity.
